Converted amounts (≈) assume the structure as drawn. Like-named read-outs stand apart in the source and are kept apart here.
Legend:
Kinetic solubility = type: physicochemical; conditions: kinetic from dmso stock
Description: Starting from a 20 mM stock solution of test compound in 100% DMSO, dilutions were prepared to a theoretical concentration of 400 μM in duplicates in phosphate-buffered saline pH 7.4 (PBS) (138 mM NaCl, 2.7 mM KCl, 10 mM K-phosphate) and 100 mM citrate buffer pH 3.0 with 2% final DMSO.
The experimental compound dilutions in PBS and citrate buffer were further allowed to equilibrate at 25° C. on a thermostatic orbital shaker for two hours and then centrifuged at 14000 rpm, 5 min and filtered through HTS filter plates using a vacuum manifold. The filtrates of test compounds were diluted 2-fold with acetonitrile with 2% DMSO before measuring. In parallel, compound dilutions in 50% acetonitrile/buffer were prepared to the theoretical concentrations of 0 μM (blank), 100 μM, 200 μM and 400 μM with 2% final DMSO to generate calibration curves.
Ondansetron (Sigma Aldrich USA, cat #03639) was used as a reference to control proper assay performance. 200 μl of each sample were transferred to a 96-well plate and solubility was measured in a 200-550 nm range (in steps of 5 nm). The measurements were performed using a Spectra Max Plus reader in UV-Vis mode. Acquisition and analysis of the data were performed using SoftMax Pro v.5.4 (Molecular Devices) and Excel 2010 data analysis software. Proper absorbance wavelengths for calculations were selected for each compound manually based on absorbance maximums (absolute absorbance unit values for the minimum and maximum concentration points within 0-3 OD range). Each of the final datasets was additionally visually evaluated by the operator and goodness of fit (R2) is calculated for each calibration curve.

[1] = Liver microsomal stability, mouse; type: in vitro ADME; conditions: male, pH 7.4, liver microsomes
Description: Mouse hepatic microsomes were isolated from pooled (50), perfused livers of male Balb/c mice. Rat hepatic microsomes were isolated from pooled (15), perfused livers of male Wistar rats. Isolation was performed according to the standard protocol (Hill, J. R. in Current Protocols in Pharmacology 7.8.1-7.8.11, Wiley Interscience, 2003). The batches of microsomes were tested for quality control using Imipramine, Propranolol and Verapamil as reference compounds.
(§1) Microsomal incubations were carried out in 96-well plates in 5 aliquots of 40 μL each (one for each time point). Liver microsomal incubation medium contained PBS (100 mM, pH 7.4), MgCl2 (3.3 mM), NADPH (3 mM), glucose-6-phosphate (5.3 mM), glucose-6-phosphate dehydrogenase (0.67 units/ml) with 0.42 mg of liver microsomal protein per ml. Control incubations were performed replacing the NADPH-cofactor system with PBS. Test compound (2 μM, final solvent concentration 1.6%) was incubated with microsomes at 37° C., shaking at 100 rpm. Incubations were performed in duplicates. Five time points over 40 minutes have been analyzed. The reactions were stopped by adding 12 volumes of 90% acetonitrile-water to incubation aliquots, followed by protein sedimentation by centrifuging at 5500 rpm for 3 minutes. […]. Supernatants were analyzed using the HPLC system coupled with tandem mass spectrometer (API3000 PE Sciex). Acquisition and analysis of the data were performed using Analyst 1.5.2 software (PE Sciex). The elimination constant (kel), half-life (t½) and intrinsic clearance (Clint) were determined in plot of […] versus time, using linear regression analysis:
Mouse hepatic microsomes were isolated from pooled, perfused livers of male CD1 mice. Rat hepatic microsomes were isolated from pooled, perfused livers of male Sprague Dawley rats. Dog hepatic microsomes were isolated from pooled, perfused livers of male Beagle dogs. The batches of microsomes were tested for quality control using Testosterone, Propranolol and Caffeine as reference compounds.
(§2) A 10 mM stock solution of compound in DMSO is diluted three-fold in DMSO. This pre-diluted compound solution is then further diluted to 2 μM in a 50 mM phosphate buffer (PBS, pH 7.4) and pre-warmed at 37° C. This compound dilution is mixed F2 with microsomal/cofactor mix at 37° C. under shaking at 300 rpm. Final reaction conditions are: 100 μL incubation volume, 1 μM of test compound (in duplicate), <0.1% DMSO, 0.5 mg/mL microsomes, 0.6 U/mL Glucose-6-phosphate-dehydrogenase (G6PDH, Roche, 10127671001), 3.3 mM MgCl2 (Sigma, M2670), 3.3 mM glucose-6-phosphate (Sigma, G-7879) and 1.3 mM NADP+ (Sigma, N-0505).
(§3) After 60 min of incubation at 300 rpm and 37° C., the reaction was stopped with 3 volumes of STOP solution (acetonitrile/MeOH 2/1 with diclofenac as internal standard). For the time point zero, 3 volumes of STOP solution were added to the compound dilution before the microsome mix was added. Six time points over 60 minutes have been analyzed. The samples of all time points were centrifuged, filtered and the supernatant analyzed by LCMS/MS (systems API4000).
(§4) The instrument responses (peak areas/IS peak area) were referenced to the zero time-point samples (considered as 100%) in order to determine the percentage of compound remaining.
(§5) Testosterone (1 μM) and Propranolol and Caffeine (1 μM) were used as reference compounds, being unstable and stable compounds respectively. If the microsomal stability values for these controls are not in the range determined by the historical data, the assay is not validated. The solubility of the compound in the final test concentration in 50 mM buffer pH 7.4 is checked by microscope to indicate whether precipitation is observed or not. If a precipitate is observed, no data of microsomal stability is generated.

[2] = Liver microsomal stability, human; type: in vitro ADME; conditions: pH 7.4, liver microsomes
Description: as §1, §2, §3, §4, §5

solubility at 2 h (Kinetic solubility; aqueous buffer, kinetic solubility, phosphate-buffered saline pH 7.4, 2% DMSO, 25° C., two hours, read-out: PBS solubility, pH 7.4): 383 µM (≈ 163 µg/mL)
solubility at 2 h (Kinetic solubility; citrate buffer, 25 °C, pH 3, aqueous buffer, read-out: Citrate buffer solubility, pH 3.0): 377 µM (≈ 160 µg/mL)
microsomal CLint [1]: 12 µL/min/mg
microsomal CLint [2]: 7 µL/min/mg
Structure (SMILES): CC(C)Cc1cc(F)c(-c2nn[nH]n2)c(N2CC(C)N(Cc3cccnn3)CC2C)c1 (stereo not shown) [Compound A-183, 3-[[4-[3-fluoro-5-isobutyl-2-(2H-tetrazol-5-yl)phen-yl]-2,5-dimethyl-piperazin-1-yl]-methyl]pyridazine]

— patent US20240368133A1, “Compounds for the Treatment of Pain, in Particular, Neuropathic Pain, and/or Other Diseases or Disorders that are Associated with AT2R and/or AT2R Mediated Signaling” (Confo Therapeutics N.V., priority 2021, published 2024)
